Source: PMC11025159 (Journal of Translational Medicine, 2024)

Assay: Body weight, biochemical and haematological parameters in DHT-induced AGA mice (0.5% testosterone then topical treatment)
Assay type: in vivo, C57BL/6J mice
Conditions: for LYMPH: unit assumed
Method: The experiments were performed on C57BL/6 J and Athymic nude mice (NU/J Foxn1^nu) of 6–7 weeks of age obtained from Animal House Facility, CSIR-Indian Institute of Integrative Medicine (IIIM), Jammu, India. […] The animals were provided with ad libitum feed (standard pellet diet) and autoclaved RO water throughout the study. The body weight of mice was measured after seven days before treatment.
C57BL/6 J mice (male) were obtained from CSIR-IIIM Animal House at 7 weeks of age. We used a DHT-induced AGA mice model for this study. […] At the end of the experiment, skin samples were collected and preserved in 10% neutral buffered formalin for tissue sectioning and staining using haematoxylin and eosin (H&E). The histopathological examinations were performed under the 10× and 40× objectives of light microscope (Magnus, Mx21i).
Every two weeks during the experimental period, mice were anesthetized, and the blood samples were collected into tubes containing heparin sodium to detect the total and differential white blood cells, haemoglobin, red blood cell, platelet count, mean corpuscular haemoglobin, mean corpuscular volume, red blood cell volume, mean platelet volume, and analyzed using an automated haematology analyzer (Model: XT1800i; Make: Sysmex).
Every two weeks during the experimental period, mice and rats were anesthetized, and blood samples were collected into non-heparinized tubes and then centrifuged at 1000 rpm at 4 °C for 10 min to obtain the serum. The biochemical parameters, including total protein, aspartate aminotransferase, alanine aminotransferase, total protein, albumin, total bilirubin, direct bilirubin, glucose, total cholesterol, triglyceride, low-density lipoprotein, high-density lipoprotein, creatinine, and uric acid, were measured using an automatic biochemical analyzer (Model: EM360; Make: Erba Mannheim).

CCS(=O)(=O)N1CC(CC#N)(n2cc(-c3ncnc4[nH]ccc34)cn2)C1 [Baricitinib, baricitinib, reference compound]
ALP (Day 21, 0.02 mg/Kg): 108 U/L
ALT/SGPT (Day 21, 0.02 mg/Kg): 74 U/L
AST/SGOT (Day 21, 0.02 mg/Kg): 143 U/L
Cholesterol (Day 21, 0.02 mg/Kg): 171 mg/dL
Creatine (Day 21, 0.02 mg/Kg): 0.72 mg/dL
HCT (Day 21, 0.02 mg/Kg): 45%
HDL (Day 21, 0.02 mg/Kg): 105 mg/dL
LDL (Day 21, 0.02 mg/Kg): 101 mg/dL
MCHC (Day 21, 0.02 mg/Kg): 28 g/dL
MCV (Day 21, 0.02 mg/Kg): 52 fL
NEUT (Day 21, 0.02 mg/Kg): 30.5%
PLT (Day 21, 0.02 mg/Kg): 946 103/μl
RBC (Day 21, 0.02 mg/Kg): 8.2 1012/l
Total protein (Day 21, 0.02 mg/Kg): 5.0 g/dL
Triglyceride (Day 21, 0.02 mg/Kg): 98 mg/dL
Urea (Day 21, 0.02 mg/Kg): 69 mg/dL
WBC (Day 21, 0.02 mg/Kg): 4.3 103/μl
LYMPH (Day 21, 0.02 mg/Kg): 67.4%
ALP (Day 21, 0.04 mg/Kg): 99 U/L
ALT/SGPT (Day 21, 0.04 mg/Kg): 64 U/L
AST/SGOT (Day 21, 0.04 mg/Kg): 98 U/L
Cholesterol (Day 21, 0.04 mg/Kg): 171 mg/dL
Creatine (Day 21, 0.04 mg/Kg): 0.69 mg/dL
HCT (Day 21, 0.04 mg/Kg): 43%
HDL (Day 21, 0.04 mg/Kg): 122 mg/dL
LDL (Day 21, 0.04 mg/Kg): 106 mg/dL
MCHC (Day 21, 0.04 mg/Kg): 29 g/dL
MCV (Day 21, 0.04 mg/Kg): 52 fL
NEUT (Day 21, 0.04 mg/Kg): 30.5%
PLT (Day 21, 0.04 mg/Kg): 1082 103/μl
RBC (Day 21, 0.04 mg/Kg): 8.6 1012/l
Total protein (Day 21, 0.04 mg/Kg): 4.9 g/dL
Triglyceride (Day 21, 0.04 mg/Kg): 139 mg/dL
Urea (Day 21, 0.04 mg/Kg): 54 mg/dL
WBC (Day 21, 0.04 mg/Kg): 3.6 103/μl
LYMPH (Day 21, 0.04 mg/Kg): 67.4%
ALP (Day 21, 0.1mg/Kg): 144 U/L
ALT/SGPT (Day 21, 0.1mg/Kg): 92 U/L
AST/SGOT (Day 21, 0.1mg/Kg): 104 U/L
Cholesterol (Day 21, 0.1mg/Kg): 173 mg/dL
Creatine (Day 21, 0.1mg/Kg): 0.48 mg/dL
HCT (Day 21, 0.1mg/Kg): 48%
HDL (Day 21, 0.1mg/Kg): 108 mg/dL
LDL (Day 21, 0.1mg/Kg): 100 mg/dL
MCHC (Day 21, 0.1mg/Kg): 29 g/dL
MCV (Day 21, 0.1mg/Kg): 50 fL
NEUT (Day 21, 0.1mg/Kg): 26.8%
PLT (Day 21, 0.1mg/Kg): 1149 103/μl
RBC (Day 21, 0.1mg/Kg): 9.6 1012/l
Total protein (Day 21, 0.1mg/Kg): 5.0 g/dL
Triglyceride (Day 21, 0.1mg/Kg): 119 mg/dL
Urea (Day 21, 0.1mg/Kg): 51 mg/dL
WBC (Day 21, 0.1mg/Kg): 6.4 103/μl
LYMPH (Day 21, 0.1mg/Kg): 71.3%
ALP (Day 28, 0.02 mg/Kg): 159 U/L
ALT/SGPT (Day 28, 0.02 mg/Kg): 71 U/L
AST/SGOT (Day 28, 0.02 mg/Kg): 129 U/L
Cholesterol (Day 28, 0.02 mg/Kg): 213 mg/dL
Creatine (Day 28, 0.02 mg/Kg): 0.16 mg/dL
HCT (Day 28, 0.02 mg/Kg): 48.0%
HDL (Day 28, 0.02 mg/Kg): 173 mg/dL
HGB (Day 28, 0.02 mg/Kg): 15 g/dL
LDL (Day 28, 0.02 mg/Kg): 98 mg/dL
MCHC (Day 28, 0.02 mg/Kg): 30.0 g/dL
MCV (Day 28, 0.02 mg/Kg): 62 fL
PLT (Day 28, 0.02 mg/Kg): 1724 103/μl
RBC (Day 28, 0.02 mg/Kg): 7.8 106/μl
Total protein (Day 28, 0.02 mg/Kg): 5.8 g/dL
Triglyceride (Day 28, 0.02 mg/Kg): 90 mg/dL
Urea (Day 28, 0.02 mg/Kg): 60 mg/dL
WBC (Day 28, 0.02 mg/Kg): 6.3 103/μl
ALP (Day 28, 0.04 mg/Kg): 174 U/L
ALT/SGPT (Day 28, 0.04 mg/Kg): 88 U/L
AST/SGOT (Day 28, 0.04 mg/Kg): 123 U/L
Cholesterol (Day 28, 0.04 mg/Kg): 182 mg/dL
Creatine (Day 28, 0.04 mg/Kg): 0.11 mg/dL
HCT (Day 28, 0.04 mg/Kg): 48.0%
HDL (Day 28, 0.04 mg/Kg): 143 mg/dL
HGB (Day 28, 0.04 mg/Kg): 14 g/dL
LDL (Day 28, 0.04 mg/Kg): 85 mg/dL
MCHC (Day 28, 0.04 mg/Kg): 29.0 g/dL
MCV (Day 28, 0.04 mg/Kg): 60 fL
PLT (Day 28, 0.04 mg/Kg): 1427 103/μl
RBC (Day 28, 0.04 mg/Kg): 8.0 106/μl
Total protein (Day 28, 0.04 mg/Kg): 6.3 g/dL
Triglyceride (Day 28, 0.04 mg/Kg): 123 mg/dL
Urea (Day 28, 0.04 mg/Kg): 66 mg/dL
WBC (Day 28, 0.04 mg/Kg): 3.1 103/μl
ALP (Day 28, 0.1mg/Kg): 184 U/L
ALT/SGPT (Day 28, 0.1mg/Kg): 74 U/L
AST/SGOT (Day 28, 0.1mg/Kg): 86 U/L
Cholesterol (Day 28, 0.1mg/Kg): 164 mg/dL
Creatine (Day 28, 0.1mg/Kg): 0.13 mg/dL
HCT (Day 28, 0.1mg/Kg): 43.0%
HDL (Day 28, 0.1mg/Kg): 134 mg/dL
HGB (Day 28, 0.1mg/Kg): 14 g/dL
LDL (Day 28, 0.1mg/Kg): 78 mg/dL
MCHC (Day 28, 0.1mg/Kg): 33.0 g/dL
MCV (Day 28, 0.1mg/Kg): 67 fL
PLT (Day 28, 0.1mg/Kg): 1394 103/μl
RBC (Day 28, 0.1mg/Kg): 6.4 106/μl
Total protein (Day 28, 0.1mg/Kg): 6.2 g/dL
Triglyceride (Day 28, 0.1mg/Kg): 72 mg/dL
Urea (Day 28, 0.1mg/Kg): 53 mg/dL
WBC (Day 28, 0.1mg/Kg): 3.9 103/μl
